Laboratory results as given in US20060057669A1, “Inactive transcription factor tif-ia and uses thereof” (priority 2002, published 2006).

Tests used:
HEK293T cells [1] = test: Trypan blue staining; assay type: cell-based; conditions: data not shown
HEK293T cells [2] = test: Cell enumeration by dual-parameter flow cytometry; assay type: cell-based; conditions: 60 hr after transfection
Description: (C) Cell enumeration by flow cytometry. HEK293T cells expressing wild-type TIF-IA or the S649 mutants were harvested 60 hours after transfection, stained with FITC-conjugated anti-FLAG M2 antibodies and analyzed by dual-parameter flow cytometry in a FACScan™ flow cytometer in the presence of CaliBRITE™ calibration beads. 60,000 events were recorded from each sample. The number of cells expressing FLAG-TIF-IA was calculated from the ratio between FITC-positive cells and counted beads.
HEK293T cells were harvested 60 hr after transfection with pcDNA-FLAG-TIF-IA, fixed with 2% paraformaldehyde and permeabilized with 0.1% Triton X-100 in PBS. […] Cell were analyzed with a FACSCan™ flow cytometer in the presence of CaliBRITE™ beads (Becton Dickinson, San Jose, USA). The number of cells expressing FLAG-TIF-IA was calculated from the ratio between FITC-positive cells and counted beads.
Given the functional significance of ERK/RSK-directed TIF-IA phosphorylation on Pol I transcription, mutations that enhance or abrogate TIF-IA activity may have a positive or negative effect on cell growth. […] The expression of TIF-IA was estimated on Western blots and the cellular growth rate was measured by calcein-AM staining. […] Thus, cellular calcein fluorescence correlates with the amount of viable cells. […]

HEK293T cells [3] = test: Quantitative fluorimetric viability assay with calcein-AM; assay type: cell-based; conditions: 24, 36, 48 and 60 hr after transfection; 2 μM calcein-AM
Description: (B) Quantitative fluorimetric viability assay with calcein-AM. HEK293T cells were transfected with TIF-IA or the indicated point mutants. […] Viable cells were measured 24, 36, 48 and 60 hr after transfection by incubation with […] calcein-AM. The gradual increase in fluorescence intensity was recorded with a fluorescence multi-well plate reader for 20 min with an excitation wavelength of 485 nm and an emission wavelength of 530 nm. The proliferation rate of mock-transfected cells and cells overexpressing TIF-IA is shown at the left. Plots show the accumulation of calcein fluorescence (arbitrary units) against time. Growth rates calculated from linear regression curves are shown at the right. Values are presented as the mean±SD from three independent experiments performed in duplicates.
Conversion of calcein-AM (calcein acetoxymethyl ester, (CN Bioscience GmbH, Bad Soden, Germany) to calcein was used to measure cell proliferation. 12 hr after transfection, HEK293T cells were seeded to 96-well micro-plates at 1×10^4 cells/well. After 24, 36, 48 and 60 hr, cells were washed with PBS, incubated with 2 μM calcein-AM, and the gradual increase in fluorescence intensity within the cells was recorded by a fluorescence multi-well plate reader (CytoFluor Series 4000/TC, PerSeptive Biosystems, (Applied Biosystems, Forster City, USA) for 20 min in 1 min intervals. Excitation wavelength used for measurements of fluorescence was 485 nm with a bandwidth of 20 nm; emission wavelength was 530 nm with a bandwidth of 25 nm. Under the experimental conditions used, there is a direct correlation between the accumulation ratio of intracellular calcein fluorescence and the number of viable cells. The data from three independent experiments were analyzed by Sigmaplot and expressed as the mean±standard deviation. For statistical analysis, student's t test was used. Differences with a P<0.01 were considered statistically significant.
Given the functional significance of ERK/RSK-directed TIF-IA phosphorylation on Pol I transcription, mutations that enhance or abrogate TIF-IA activity may have a positive or negative effect on cell growth. To test this, HEK293T cells were transfected with cDNAs encoding wild-type or mutant TIF-IA which harbor single or double point mutations at S649 and S633. The expression of TIF-IA was estimated on Western blots and the cellular growth rate was measured by calcein-AM staining. Calcein-AM is a non-fluorescent, hydrophobic compound that is rapidly hydrolyzed by intracellular esterases releasing hydrophilic fluorescent calcein. Thus, cellular calcein fluorescence correlates with the amount of viable cells. […] Cells expressing FLAG-tagged wild-type or mutant TIF-IA were stained with FITC-conjugated anti-FLAG antibodies, identified by FACS and cell numbers were calculated by measuring the ratio of stained cells versus an internal standard. […] Conversely, the number of cells expressing TIF-IAS649A was 33% lower than the control. […] Taken together, the results reveal a striking correlation between phosphorylation of TIF-IA at serine 649, cellular rRNA synthetic activity and cell cycle progression.

Pol I transcription [4] = test: In vitro transcription: TIF-IA mutants added to nuclear extract from exponentially growing FM3A cells; assay type: biochemical, murine; conditions: 20 and 40 ng added to 15 ug nuclear extract
Description: 20 and 40 ng of the indicated TIF-IA mutants were added to 15 ug nuclear extract from exponentially growing FM3A cells and rDNA transcription was assayed.
(§1) Nuclear extracts were prepared from exponentially growing (8×10^5 cells/ml), density-arrested or PD98059-treated (CN Bioscience, Bad Soden, Germany) 40 μM, 0.5 hr) or rapamycin-treated FM3A cells (ATCC, Manassas, USA). 25 μl assays contained 50 ng of template DNA (pMr600/EcoRI), 30 μg nuclear extract proteins and 12 mM Hepes-KOH, [pH8.0], 0.1 mM EDTA, 5 mM MgCl2, 80 mM KCl, 10 mM creatine phosphate, 12% (v/v) glycerol, 0.66 mM each of ATP, GTP and CTP, 0.01 mM UTP and 0.5 μCi [α-^32P]UTP (5000 Ci/mmol). After incubation for 60 min at 30° C., RNA was extracted and analyzed on non-denaturing 5% polyacrylamide gels
Given that phosphorylation of TIF-IA at serine 649 is essential for transcription, excess of TIF-IAS649A should impair Pol I transcription. To test this, we examined the effect of exogenous wild-type and mutant TIF-IA on transcriptional activity of extracts from exponentially growing cells.

Pol I transcription [5] = test: In vitro transcription: TIF-IA mutants restoring rDNA transcription of nuclear extract from density-arrested FM3A cells; assay type: biochemical, murine; conditions: S633/S649 mutants; 20 and 40 ng
Description: (A) Transcriptional activity of TIF-IA mutants in vitro. FLAG-tagged wild-type TIF-IA and the indicated single or double point mutants were overexpressed in HEK293T cells, immunopurified, and 20 and 40 ng were assayed for their capability to restore rDNA transcriptional activity of nuclear extract from density-arrested FM3A cells. The amount and purity of TIF-IA were estimated on silver-stained SDS-polyacrylamide gels and Western blots (data not shown).
(A) Transcriptional activity of TIF-IAS199A and TIF-IAS199D in vitro. FLAG-tagged wild-type TIF-IA and the indicated mutants were immunopurified from HEK293T cells, and 30 and 60 ng were assayed for their capability to restore transcriptional activity of nuclear extract from density-arrested FM3A cells. The amount and purity of TIF-IA were estimated on silver-stained SDS-polyacrylamide gels (data not shown).
(B) Transcriptional activity of TIF-IAS44A in vitro. FLAG-tagged wild-type TIF-IA and the indicated mutant were assayed for their transcriptional activity in vitro.
as §1
TIF-IA was immunopurified from untransfected NIH3T3 cells or from HEK293T cells overexpressing FLAG-tagged TIF-IA. 4×10^6 cells were lysed in 0.8 ml IP buffer (20 mM Tris-HCl [pH 7.4], 200 mM NaCl, 2 mM EDTA, 2 mM EGTA, 1% Triton X-100, 0.5 mM PMSF, 1 μg/ml aprotinin, 5 μg/ml leupeptin and 1 μg/ml pepstatin A), centrifuged at 10,000 g for 30 min, and the supernatants were incubated for 4 hr at 4° C. with either 10 μg anti-TIF-IA antibodies bound to 20 μl protein G-agarose or with anti-FLAG (M2) agarose (Sigma-Aldrich Corp., Missouri, USA). The immunocomplexes were successively washed with buffer AM (20 mM Tris-HCl [pH 8.0], 5 mM MgCl2, 0.1 mM EDTA, 20% glycerol) containing 400 and 100 mM KCl, respectively. The amount and purity of TIF-IA was estimated on silver-stained polyacrylamide gels and similar amounts of bead-bound TIF-IA were used in in vitro transcription assays. GST fusion proteins were expressed in E. coli BL21(DE3) and purified on Glutathione-Sepharose 4B according to the manufacturer's instructions.
To assess the functional relevance of S633 and S649 phosphorylation on transcriptional activity, the respective S→A and S→D single or double point mutants were purified from transfected cells and assayed for their capability to rescue transcription of extracts from density-arrested cells. […] Thus, phosphorylation of TIF-IA at S649 and S633 is required for transcriptional activity.
Phosphorylation of peptide a should inhibit TIF-IA activity, while phosphorylation of peptide b, e.g. S44, should augment TIF-IA activity.

HEK293T cells [6] = test: Images of transfected HEK293T cells; assay type: cell-based; conditions: images taken after 48 h
Description: HEK293T cells were transfected with TIF-IA or TIFIAS649A, respectively, and images were taken after 48 h.

HEK293T cells [7] = test: Relative DNA content of sorted cells by FACS analysis; assay type: cell-based
Description: HEK293T cells were harvested 60 hr after transfection with pcDNA-FLAG-TIF-IA, fixed with 2% paraformaldehyde and permeabilized with 0.1% Triton X-100 in PBS. Transfected cells were labeled by incubation for 1 hr with 2 μg/ml FITC-conjugated anti-M2 antibodies (Sigma) and subsequently stained with […] propidium iodide (Sigma). Cell were analyzed with a FACSCan™ flow cytometer in the presence of CaliBRITE™ beads (Becton Dickinson, San Jose, USA). The number of cells expressing FLAG-TIF-IA was calculated from the ratio between FITC-positive cells and counted beads.
Given the functional significance of ERK/RSK-directed TIF-IA phosphorylation on Pol I transcription, mutations that enhance or abrogate TIF-IA activity may have a positive or negative effect on cell growth. To test this, HEK293T cells were transfected with cDNAs encoding wild-type or mutant TIF-IA which harbor single or double point mutations at S649 and S633. The expression of TIF-IA was estimated on Western blots and the cellular growth rate was measured by calcein-AM staining. […] Thus, cellular calcein fluorescence correlates with the amount of viable cells. […] Cells expressing FLAG-tagged wild-type or mutant TIF-IA were stained with FITC-conjugated anti-FLAG antibodies, identified by FACS and cell numbers were calculated by measuring the ratio of stained cells versus an internal standard. […]

TIF-IAS649A: TIF-IA point mutant, serine residue at position 649 replaced by an alanine residue
cell viability as cause of growth inhibition (HEK293T cells [1]): not due to decreased cell viability
number of cells lower than the control (HEK293T cells [2]): 33%
cellular growth rate by calcein-AM staining (HEK293T cells [3]): impaired cell growth
effect on transcriptional activity of extracts from exponentially growing cells (Pol I transcription [4]): acts as a dominant-negative inhibitor of Pol I transcription
effect on transcriptional activity of extracts from exponentially growing cells (Pol I transcription [4]; listed as S649A): suppressed transcription well below the basal level
capability to rescue transcription of extracts from density-arrested cells (Pol I transcription [5]): abolished TIF-IA activity
cell growth on images (HEK293T cells [6]): retards cell growth
decrease of G2/M-phase cells (HEK293T cells [7]): 25%
